Measurements as given in the NIST ThermoML archive (doi:10.1021/acs.jced.5b00549).

Test: mn = molality of the nth substance listed, in mol/kg
Settings: 100 kPa, Liquid; for viscosity: Capillary tube (Ostwald / Ubbelohde) method; for speed of sound: Frequency=3 MHz, Sing-around technique in a fixed-path interferometer; for mass density: Vibrating tube method

N[C@@H](Cc1c[nH]cn1)C(=O)O [L-histidine] + O
Settings | mass density [kg/m3] | speed of sound [m/s] | viscosity [mPa·s]
293.15 K, m1 = 0.02 | 999.369 | 1484.4 | 1.013
293.15 K, m1 = 0.04 | 1000.53 | 1486.2 | 1.019
293.15 K, m1 = 0.06 | 1001.7 | 1488 | 1.025
293.15 K, m1 = 0.08 | 1002.86 | 1489.7 | 1.03
293.15 K, m1 = 0.1 | 1004.03 | 1491.5 | 1.035
293.15 K, m1 = 0.12 | 1005.19 | 1493.2 | 1.04
293.15 K, m1 = 0.14 | 1006.36 | 1494.9 | 1.045
293.15 K, m1 = 0.16 | 1007.53 | 1496.6 | 1.049
293.15 K, m1 = 0.18 | 1008.71 | 1498.2 | 1.054
293.15 K, m1 = 0.2 | 1009.89 | 1499.9 | 1.058
298.15 K, m1 = 0.02 | 998.178 | 1498.5 | 0.8996
298.15 K, m1 = 0.04 | 999.317 | 1500.2 | 0.9048
298.15 K, m1 = 0.06 | 1000.46 | 1501.9 | 0.9091
298.15 K, m1 = 0.08 | 1001.59 | 1503.7 | 0.9138
298.15 K, m1 = 0.1 | 1002.73 | 1505.3 | 0.9175
298.15 K, m1 = 0.12 | 1003.87 | 1507 | 0.9222
298.15 K, m1 = 0.14 | 1005.02 | 1508.7 | 0.9259
298.15 K, m1 = 0.16 | 1006.16 | 1510.3 | 0.9293
298.15 K, m1 = 0.18 | 1007.32 | 1512 | 0.9336
298.15 K, m1 = 0.2 | 1008.47 | 1513.6 | 0.9374
303.15 K, m1 = 0.02 | 996.746 | 1510.7 | 0.8051
303.15 K, m1 = 0.04 | 997.854 | 1512.4 | 0.8093
303.15 K, m1 = 0.06 | 998.962 | 1514.1 | 0.813
303.15 K, m1 = 0.08 | 1000.07 | 1515.7 | 0.8165
303.15 K, m1 = 0.1 | 1001.18 | 1517.3 | 0.8198
303.15 K, m1 = 0.12 | 1002.29 | 1519 | 0.8233
303.15 K, m1 = 0.14 | 1003.39 | 1520.5 | 0.8265
303.15 K, m1 = 0.16 | 1004.5 | 1522.2 | 0.8301
303.15 K, m1 = 0.18 | 1005.61 | 1523.7 | 0.8339
303.15 K, m1 = 0.2 | 1006.72 | 1525.3 | 0.8372
308.15 K, m1 = 0.02 | 995.102 | 1521.3 | 0.7253
308.15 K, m1 = 0.04 | 996.183 | 1523 | 0.7289
308.15 K, m1 = 0.06 | 997.262 | 1524.6 | 0.732
308.15 K, m1 = 0.08 | 998.34 | 1526.2 | 0.7348
308.15 K, m1 = 0.1 | 999.416 | 1527.8 | 0.7378
308.15 K, m1 = 0.12 | 1000.49 | 1529.4 | 0.7407
308.15 K, m1 = 0.14 | 1001.57 | 1531 | 0.7435
308.15 K, m1 = 0.16 | 1002.64 | 1532.5 | 0.7466
308.15 K, m1 = 0.18 | 1003.72 | 1534.1 | 0.7492
308.15 K, m1 = 0.2 | 1004.78 | 1535.6 | 0.7524
313.15 K, m1 = 0.02 | 993.257 | 1530.4 | 0.6578
313.15 K, m1 = 0.04 | 994.314 | 1532 | 0.6608
313.15 K, m1 = 0.06 | 995.368 | 1533.5 | 0.6633
313.15 K, m1 = 0.08 | 996.42 | 1535.1 | 0.666
313.15 K, m1 = 0.1 | 997.47 | 1536.7 | 0.6682
313.15 K, m1 = 0.12 | 998.515 | 1538.2 | 0.6709
313.15 K, m1 = 0.14 | 999.558 | 1539.7 | 0.6734
313.15 K, m1 = 0.16 | 1000.6 | 1541.2 | 0.6756
313.15 K, m1 = 0.18 | 1001.63 | 1542.7 | 0.6783
313.15 K, m1 = 0.2 | 1002.67 | 1544.2 | 0.681
